Target: human DGKζ (Homo sapiens (Human), UniProt Q13574)
Experiment: Human DGKζ kinase activity inhibition assay (ADP-Glo)
Format: biochemical
Settings: in vitro human DGKζ kinase activity inhibition assay; read-out: IC50
Method in brief: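 Enzyme was C-terminally FLAG-tagged full-length recombinant human DGKζ from baculovirus-infected insect cells. Substrate preparation used octyl-β-D-glucopyranoside in 50 mM MOPS pH 7.4 with sonication; ADP generated was quantified by ADP-Glo luminescence as activity measure.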

human DGKζ, sequence (Q13574 other isoform, or with tags, fused parts or gaps): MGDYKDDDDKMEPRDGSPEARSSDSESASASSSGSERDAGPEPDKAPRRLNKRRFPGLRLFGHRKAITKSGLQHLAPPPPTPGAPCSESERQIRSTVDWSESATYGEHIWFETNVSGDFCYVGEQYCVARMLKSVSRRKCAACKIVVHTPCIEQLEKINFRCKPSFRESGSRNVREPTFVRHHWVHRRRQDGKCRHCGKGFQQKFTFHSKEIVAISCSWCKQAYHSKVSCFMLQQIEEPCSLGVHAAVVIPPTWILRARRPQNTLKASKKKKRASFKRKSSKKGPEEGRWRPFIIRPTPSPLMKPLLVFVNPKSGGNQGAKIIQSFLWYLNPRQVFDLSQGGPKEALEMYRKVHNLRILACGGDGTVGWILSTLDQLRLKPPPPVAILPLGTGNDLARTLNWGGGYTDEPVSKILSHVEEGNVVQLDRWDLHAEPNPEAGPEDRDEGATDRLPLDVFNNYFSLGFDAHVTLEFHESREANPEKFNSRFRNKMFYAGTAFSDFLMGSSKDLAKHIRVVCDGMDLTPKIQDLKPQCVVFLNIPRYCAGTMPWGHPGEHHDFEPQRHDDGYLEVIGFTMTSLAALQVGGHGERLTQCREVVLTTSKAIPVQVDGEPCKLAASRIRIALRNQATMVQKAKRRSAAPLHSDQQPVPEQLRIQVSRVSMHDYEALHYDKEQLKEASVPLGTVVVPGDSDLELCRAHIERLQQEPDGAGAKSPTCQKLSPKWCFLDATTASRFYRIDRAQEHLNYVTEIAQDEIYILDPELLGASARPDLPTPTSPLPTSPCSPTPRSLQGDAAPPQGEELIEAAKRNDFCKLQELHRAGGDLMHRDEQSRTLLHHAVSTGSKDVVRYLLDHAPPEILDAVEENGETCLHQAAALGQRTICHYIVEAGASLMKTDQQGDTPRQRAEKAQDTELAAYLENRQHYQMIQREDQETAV

Row | SMILES | IC50
1 | CCC(C(N)=O)N(c1ccc(F)cc1)c1nc(N)c(C(=O)c2ccc(OC)cc2)s1 (racemic) [Example 70, rac-2-{[4-amino-5-(4-methoxybenzoyl)-1,3-thiazol-2-yl](4-fluorophenyl)amino}butanamide] | 196 nM
2 | CCNC(=O)COc1ccc(C(=O)c2sc(N(c3ccc(F)cc3)C(C)C(N)=O)nc2N)cc1 (racemic) [Example 104, rac-2-(N-[4-amino-5-[4-[2-(ethylamino)-2-oxo-ethoxy]benzoyl]thiazol-2-yl]-4-fluoro-anilino)propanamide] | 234 nM
3 | CC(C(N)=O)N(c1ccc(OC(F)(F)F)c(F)c1)c1nc(N)c(C(=O)c2ccc(OC(F)F)cc2)s1 (racemic) [Example 219, rac-2-[N-[4-amino-5-[4-(difluoromethoxy)benzoyl]thiazol-2-yl]-3-fluoro-4-(trifluoromethoxy)anilino]propanamide] | 13 nM
4 | Cc1ccccc1CNC(=O)COc1ccc(C(=O)c2sc(N(c3ccc(F)cc3)C(C)C(N)=O)nc2N)cc1 (racemic) [Example 84, rac-2-(N-[4-amino-5-[4-[2-(o-tolylmethylamino)-2-oxo-ethoxy]benzoyl]thiazol-2-yl]-4-fluoro-anilino)propanamide] | 24.6 nM
5 | CC(C(N)=O)N(c1ccc(F)cc1)c1nc(N)c(C(=O)c2ccc(OCC(=O)Nc3ccc4ncccc4c3)cc2)s1 (racemic) [Example 108, rac-2-(N-(4-amino-5-[4-[2-oxo-2-(6-quinolylamino)ethoxy]benzoyl]thiazol-2-yl]-4-fluoro-anilino)propanamide] | 19.4 nM
6 | COc1ccc(N(c2nc(N)c(C(=O)c3ccc(OC(F)F)cc3)s2)C(C)C(N)=O)cc1 (racemic) [Example 174, rac-2-(N-[4-amino-5-[4-(difluoromethoxy)benzoyl]thiazol-2-yl]-4-methoxy-anilino)propanamide] | 51 nM
7 | Cc1nc(N(c2ccc(F)c(F)c2)C(C)C(N)=O)sc1C(=O)c1ccc(OC(F)F)cc1 (single isomer, unassigned) [Example 55.1, 2-(N-[5-[4-(difluoromethoxy)benzoyl]-4-methyl-thiazol-2-yl]-3,4-difluoro-anilino)propanamide] | 6 nM
8 | CC(C(N)=O)N(c1ccc(F)cc1)c1nc(N)c(C(=O)c2ccc(N3CCOCC3)cc2)s1 (racemic) [Example 178, rac-2-(N-[4-amino-5-(4-morpholinobenzoyl)thiazol-2-yl]-4-fluoro-anilino)propanamide] | 48 nM
9 | CC(C(N)=O)N(c1ccc(OC(F)(F)F)nc1)c1nc(N)c(C(=O)c2ccc(Cl)cc2)s1 (racemic) [Example 249, rac-2-[[4-amino-5-(4-chlorobenzoyl)thiazol-2-yl]-[6-(trifluoromethoxy)-3-pyridyl]amino]propanamide] | 120 nM
10 | CC(C(N)=O)N(c1ccc(F)cc1)c1nc(N)c(C(=O)c2ccc([N+](=O)[O-])cc2)s1 (racemic) [Example 175, rac-2-(N-[4-amino-5-(4-nitrobenzoyl)thiazol-2-yl]-4-fluoro-anilino)propanamide] | 20 nM
11 | C[C@H](C(N)=O)N(c1ccc(F)c(F)c1)c1nc(N)c(C(=O)c2ccc(OC(F)F)cc2)s1 [Example 49.2, (R)-2-(N-[4-amino-5-[4-(difluoromethoxy)benzoyl]thiazol-2-yl]-3,4-difluoro-anilino)propanamide] | 2.1 nM
12 | COc1ccc(C(=O)c2sc(N(c3ccc(F)cc3)C(C)C(N)=O)nc2N)cn1 (racemic) [Example 14, rac-2-(N-[4-amino-5-(6-methoxypyridine-3-carbonyl)thiazol-2-yl]-4-fluoro-anilino)propanamide] | 334 nM
13 | CC(C(N)=O)N(c1ccc(OC(F)(F)F)nc1)c1nc(N)c(C(=O)c2ccc(OC(F)F)cc2)s1 (racemic) [Example 250, rac-2-[[4-amino-5-[4-(difluoromethoxy)benzoyl]thiazol-2-yl]-[6-(trifluoromethoxy)-3-pyridyl]amino]propanamide] | 36 nM
14 | CC(C(N)=O)N(c1ccc(OC(F)F)c(Cl)c1)c1nc(N)c(C(=O)c2ccncc2)s1 (racemic) [Example 203, rac-2-[N-[4-amino-5-(pyridine-4-carbonyl)thiazol-2-yl]-3-chloro-4-(difluoromethoxy)anilino]propanamide] | 381 nM
15 | CC(C(N)=O)N(c1ccc2c(c1)OC(F)(F)O2)c1nc(N)c(C(=O)c2ccncc2)s1 (racemic) [Example 215, rac-2-[[4-amino-5-(pyridine-4-carbonyl)thiazol-2-yl]-(2,2-difluoro-1,3-benzodioxol-5-yl)amino]propanamide] | 279 nM
16 | CC(C(N)=O)N(c1ccc(F)cc1)c1nc(N)c(C(=O)c2ccc(OC(F)F)cc2)s1 (single isomer, unassigned) [Example 44.1, 2-(N-[4-amino-5-[4-(difluoromethoxy)benzoyl]thiazol-2-yl]-4-fluoro-anilino)propanamide] | 1390 nM
17 | Cc1cc(C(=O)c2sc(N(c3ccc(F)cc3)C(C)C(N)=O)nc2N)ccn1 (racemic) [Example 187, rac-2-(N-[4-amino-5-(2-methylpyridine-4-carbonyl)thiazol-2-yl]-4-fluoro-anilino)propanamide] | 1400 nM
18 | CC(C(N)=O)N(c1ccc(F)c(F)c1)c1nc(N)c(C(=O)c2ccc(O)cc2)s1 (single isomer, unassigned; enantiomer 2) [Example 288, 2-(N-[4-amino-5-(4-hydroxybenzoyl)thiazol-2-yl]-3,4-difluoro-anilino)propanamide (enantiomer 2)] | 3440 nM
19 | CC(C(N)=O)N(c1ccc(C(F)(F)F)cc1)c1nc(N)c(C(=O)c2ccc(OC(F)F)cc2)s1 (racemic) [Example 43, rac-2-[N-[4-amino-5-[4-(difluoromethoxy)benzoyl]thiazol-2-yl-4-(trifluoromethyl)anilino]propanamide] | 11.1 nM
20 | CC(C(N)=O)N(c1ccc(F)c(F)c1)c1nc(N)c(C(=O)c2cccnc2)s1 (single isomer, unassigned) [Example 184.1, 2-(N-[4-amino-5-(pyridine-3-carbonyl)thiazol-2-yl]-3,4-difluoro-anilino)propanamide] | 297 nM
21 | CC(C(N)=O)N(c1ccc(OCc2ccccc2)cc1)c1nc(N)c(C(=O)c2ccc(OC(F)F)cc2)s1 (single isomer, unassigned) [Example 182.2, 2-(N-[4-amino-5-[4-(difluoromethoxy)benzoyl]thiazol-2-yl]-4-benzyloxy-anilino)propanamide] | 10500 nM

The remaining lines, values ahead:

Row | IC50 | SMILES
22 | 1000 nM | CCOc1ccc(N(c2nc(N)c(C(=O)c3ccccc3)s2)C(C)C(N)=O)cc1 (racemic) [Example 195, rac-2-(N-(4-amino-5-benzoyl-thiazol-2-yl)-4-ethoxy-anilino)propanamide]
23 | 457 nM | CCC(C(N)=O)N(c1ccc(F)cc1)c1nc(N)c(C(=O)c2ccccc2)s1 (racemic) [Example 68, rac-2-[(4-amino-5-benzoyl-1,3-thiazol-2-yl)(4-fluorophenyl)amino]butanamide]
24 | 42.8 nM | CC(C(N)=O)N(c1ccc(F)cc1)c1nc(N)c(C(=O)c2ccc(C#N)cc2)s1 (racemic) [Example 33, rac-2-(N-[4-amino-5-(4-cyanobenzoyl)thiazol-2-yl]-4-fluoro-anilino)propanamide]
25 | 19.3 nM | CC(C(N)=O)N(c1ccc(F)cc1)c1nc(N)c(C(=O)c2ccc(Cl)cc2)s1 (racemic) [Example 38, rac-2-(N-[4-amino-5-(4-chlorobenzoyl)thiazol-2-yl]-4-fluoro-anilino)propanamide]
26 | 234 nM | Cc1ccccc1N(c1nc(N)c(C(=O)c2ccccc2)s1)C(C)C(N)=O (single isomer, unassigned) [Example 77.1, 2-(N-(4-amino-5-benzoyl-thiazol-2-yl)-2-methyl-anilino)propanamide]
27 | 1050 nM | COc1ccc(C(=O)c2sc(N(c3ccc(Cl)cc3)C(C)C(N)=O)nc2N)cc1 (single isomer, unassigned) [Example 58.2, 2-(N-[4-amino-5-(4-methoxybenzoyl)thiazol-2-yl]-4-chloro-anilino)propanamide]
28 | 419 nM | CC(C(N)=O)N(c1nc(N)c(C(=O)c2ccccc2)s1)c1ccccc1F (racemic) [Example 75, rac-2-(N-(4-amino-5-benzoyl-thiazol-2-yl)-2-fluoro-anilino)propanamide]
29 | 252 nM | Cc1cccc(N(c2nc(N)c(C(=O)c3ccccc3)s2)C(C)C(N)=O)c1 (racemic) [Example 76, rac-2-(N-(4-amino-5-benzoyl-thiazol-2-yl)-3-methyl-anilino)propanamide]
30 | 730 nM | CC(C(N)=O)N(c1ccc(Cl)c(OC(F)(F)F)c1)c1nc(N)c(C(=O)c2ccccc2)s1 (racemic) [Example 236, rac-2-[N-(4-amino-5-benzoyl-thiazol-2-yl)-4-chloro-3-(trifluoromethoxy)anilino]propanamide]
31 | 403 nM | CC(C(N)=O)N(c1ccccc1)c1nc(N)c(C(=O)c2ccccc2)s1 (racemic) [Example 60, rac-2-(N-(4-amino-5-benzoyl-thiazol-2-yl)anilino)propanamide]
32 | 5 nM | CC(C(N)=O)N(c1ccc(F)cc1)c1nc(N)c(C(=O)c2ccc(OCc3ccccc3)cc2)s1 (single isomer, unassigned) [Example 170.1, 2-(N-[4-amino-5-(4-benzyloxybenzoyl)thiazol-2-yl]-4-fluoro-anilino)propanamide]
33 | 101 nM | CC(C(N)=O)N(c1nc(N)c(C(=O)c2ccccc2)s1)c1ccc(F)cc1F (racemic) [Example 65, rac-2-(N-(4-amino-5-benzoyl-thiazol-2-yl)-2,4-difluoro-anilino)propanamide]
34 | 190 nM | CC(C(N)=O)N(c1cccc(F)c1)c1nc(N)c(C(=O)c2ccccc2)s1 (racemic) [Example 74, rac-2-(N-(4-amino-5-benzoyl-thiazol-2-yl)-3-fluoro-anilino)propanamide]
35 | 88 nM | CC(C(N)=O)N(c1ccc(OC(F)F)c(F)c1)c1nc(N)c(C(=O)c2ccccc2)s1 (racemic) [Example 198, rac-2-[N-(4-amino-5-benzoyl-thiazol-2-yl)-4-(difluoromethoxy)-3-fluoro-anilinojpropanamide]

— US11964953B2, “Substituted aminothiazoles as DGKzeta inhibitors for immune activation” (Bayer Aktiengesellschaft, priority 2020, dated 2024)
